Type: in vitro ADME, human
Experimental: To determine if microfabricated microneedles could be used to enhance transdermal drug delivery, arrays of microneedles were made using a deep plasma etching technique. Their ability to penetrate human skin without breaking was tested and the resulting changes in transdermal transport were measured.
Arrays of microneedles were fabricated having extremely sharp tips (radius of curvature less than 1 μm), and are approximately 150 μm long. Because the skin surface is not flat due to dermatoglyphics and hair, the full length of these microneedles will not penetrate the skin. All experiments were performed at room temperature (23±2° C.).
To quantitatively assess the ability of microneedles to increase transdermal transport, calcein permeability of human epidermis with and without inserted microneedle arrays was measured. Calcein crosses skin very poorly under normal circumstances and therefore represents an especially difficult compound to deliver.
Insertion of microneedles into skin was capable of dramatically increasing permeability to calcein. When microneedles were inserted and left embedded in the skin, calcein permeability was increased by more than 1000-fold. Insertion of microneedles for 10 s, followed by their removal, yielded an almost 10,000-fold increase. […]

- Passive permeability across unaltered skin: very low
- Increase in skin permeability to calcein (human): about 25,000 fold
Structure (SMILES): O=C(O)CN(CC(=O)O)Cc1cc2c(cc1O)Oc1cc(O)c(CN(CC(=O)O)CC(=O)O)cc1C21OC(=O)c2ccccc21 [Calcein]

Source: patent US6743211B1, “Devices and methods for enhanced microneedle penetration of biological barriers” (Georgia Tech Research Corporation, priority 1999, dated 2004)
